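Growth conditions: 96-well plates. Treatment: test compound, 48 hours, 5 concentrations. Analysis: linear interpolation between bracketing concentrations; unreached endpoints set to highest concentration. GI50 marks 50% less growth.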 Active and inactive are the calls of the source. Rule as the data show it: active = GI50 up to about 1.1 µM and inactive = higher.
How the values were obtained:
Assay in all cases: growth of human tumour cells (NCI), 48 h
A498 = tested on: A498
BT-549 = tested on: BT-549
HCT-116 = tested on: HCT-116
Hs-578T = tested on: Hs-578T
IGROV-1 = tested on: IGROV-1
M14 = tested on: M14
MCF7 = tested on: MCF7
MDA-MB-435 = tested on: MDA-MB-435
NCI-H460 = tested on: NCI-H460
PC-3 = tested on: PC-3
SF-268 = tested on: SF-268
SK-OV-3 = tested on: SK-OV-3
SN12C = tested on: SN12C
SNB-19 = tested on: SNB-19
SNB-75 = tested on: SNB-75
SR = tested on: SR
SW-620 = tested on: SW-620
T47D = tested on: T47D
U-251 = tested on: U-251
UO-31 = tested on: UO-31

Row | SMILES | GI50 (A498) | GI50 (BT-549) | GI50 (HCT-116) | GI50 (Hs-578T) | GI50 (IGROV-1) | GI50 (M14) | GI50 (MCF7) | GI50 (MDA-MB-435) | GI50 (NCI-H460) | GI50 (PC-3) | GI50 (SF-268) | GI50 (SK-OV-3) | GI50 (SN12C) | GI50 (SNB-19) | GI50 (SNB-75) | GI50 (SR) | GI50 (SW-620) | GI50 (T47D) | GI50 (U-251) | GI50 (UO-31)
1 | O=C(O)c1c2c(c(O)c3c1CN(C1CCCCC1)CO3)OCN(C1CCCCC1)C2 | > 100 µM (inactive) | > 100 µM (inactive) | 39.3 µM (inactive) | > 100 µM (inactive) | 74.5 µM (inactive) | > 100 µM (inactive) | 20.1 µM (inactive) | 58.1 µM (inactive) | 19 µM (inactive) | > 100 µM (inactive) | 46.3 µM (inactive) | > 100 µM (inactive) | 27.2 µM (inactive) | > 100 µM (inactive) | > 100 µM (inactive) | 27.2 µM (inactive) | 22 µM (inactive) | > 100 µM (inactive) | 42.6 µM (inactive) | > 100 µM (inactive)
2 | CCOC(=O)C1(Cc2ccc3c(c2)CCC3)Cc2cc3c(cc2C1=O)CCC3 (stereo not given) | > 42.7 µM (inactive) | 76.7 µM (inactive) | 16.7 µM (inactive) | > 100 µM (inactive) | > 100 µM (inactive) | > 57.4 µM (inactive) | 33.7 µM (inactive) | 36.3 µM (inactive) | 41.9 µM (inactive) | 16.1 µM (inactive) | 98.4 µM (inactive) | > 100 µM (inactive) | 66.2 µM (inactive) | > 100 µM (inactive) | 53.7 µM (inactive) | 44.3 µM (inactive) | > 85.1 µM (inactive) | 14.2 µM (inactive) | > 78 µM (inactive) | 42.3 µM (inactive)
3 | C/C(=N\NC(=[Se])N1CCN(c2ccccn2)CC1)c1ccccn1 | 4.51 µM (inactive) | 4.15 µM (inactive) | 0.01 µM (active) | 0.188 µM (active) | 0.01 µM (active) | 0.102 µM (active) | 0.01 µM (active) | 2.06 µM (inactive) | 0.0269 µM (active) | 0.01 µM (active) | 3.21 µM (inactive) | 2.75 µM (inactive) | 0.222 µM (active) | 1.14 µM (inactive) | 4.7 µM (inactive) | 0.00622 µM (active) | 0.01 µM (active) | 0.01 µM (active) | 0.00925 µM (active) | 4.02 µM (inactive)
4 | CCCCCCc1cc2cc(C(=O)Nc3cccc(C(F)(F)F)c3)c(=N)oc2cc1O | 2.92 µM (inactive) | 1.66 µM (inactive) | 1.55 µM (inactive) | 0.998 µM (active) | 1.19 µM (inactive) | 2.29 µM (inactive) | 1.62 µM (inactive) | 2 µM (inactive) | 0.436 µM (active) | 3.34 µM (inactive) | 0.944 µM (active) | 2.16 µM (inactive) | 1.33 µM (inactive) | 2.39 µM (inactive) | 0.646 µM (active) | 0.361 µM (active) | 2.2 µM (inactive) | 0.316 µM (active) | 1.33 µM (inactive) | 3.14 µM (inactive)
5 | Cc1ccccc1OC(C)C(=O)NN1C(=O)CC(=O)NC1=S (stereo not given) | > 100 µM (inactive) | > 100 µM (inactive) | > 100 µM (inactive) | > 100 µM (inactive) | > 100 µM (inactive) | > 100 µM (inactive) | 47.4 µM (inactive) | > 100 µM (inactive) | > 100 µM (inactive) | > 100 µM (inactive) | > 100 µM (inactive) | > 100 µM (inactive) | > 100 µM (inactive) | > 100 µM (inactive) | > 100 µM (inactive) | 49.1 µM (inactive) | > 100 µM (inactive) | 23.9 µM (inactive) | > 100 µM (inactive) | > 100 µM (inactive)
6 | CC1(C)CC(=O)C2=C(C1)OC1(CC2c2ccc(Cl)cc2)CC(c2ccc(Cl)cc2)C2=C(CC(C)(C)CC2=O)O1 (stereo not given) | 16 µM (inactive) | 20.7 µM (inactive) | 12.2 µM (inactive) | 16.5 µM (inactive) | 12.5 µM (inactive) | 23.1 µM (inactive) | 12 µM (inactive) | 8.53 µM (inactive) | 14.3 µM (inactive) | 18.2 µM (inactive) | 17.9 µM (inactive) | 12.1 µM (inactive) | 36.7 µM (inactive) | 18.8 µM (inactive) | 17.5 µM (inactive) | 4.83 µM (inactive) | 20.7 µM (inactive) | > 10 µM (inactive) | 22.5 µM (inactive) | 13.6 µM (inactive)
7 | Cc1n(-c2ccccc2)c2c([n+]1Cc1ccc([N+](=O)[O-])cc1)C(=O)c1ccccc1C2=O | 12.2 µM (inactive) | 1.79 µM (inactive) | 2.02 µM (inactive) | 1.78 µM (inactive) | 0.855 µM (active) | 2.59 µM (inactive) | 1.37 µM (inactive) | 1.74 µM (inactive) | 3.78 µM (inactive) | 2.25 µM (inactive) | 1.75 µM (inactive) | 4.3 µM (inactive) | 1.64 µM (inactive) | 1.72 µM (inactive) | 3.69 µM (inactive) | 1.72 µM (inactive) | 2.12 µM (inactive) | 1.64 µM (inactive) | 1.75 µM (inactive) | 13.1 µM (inactive)
8 | Cc1cc(N(CCOS(C)(=O)=O)CCOS(C)(=O)=O)ccc1/C=N/c1ccc(-c2csc(-c3ccccc3)n2)c(Cl)c1 | 1.6 µM (inactive) | 19.2 µM (inactive) | 12.8 µM (inactive) | 18 µM (inactive) | 8.2 µM (inactive) | 8.67 µM (inactive) | 4.27 µM (inactive) | 9.79 µM (inactive) | 0.0647 µM (active) | 14.8 µM (inactive) | 8.63 µM (inactive) | 3.37 µM (inactive) | 8.81 µM (inactive) | 4.66 µM (inactive) | 1.8 µM (inactive) | 1.54 µM (inactive) | 5.2 µM (inactive) | 15.4 µM (inactive) | 16.1 µM (inactive) | 9.75 µM (inactive)
9 | C#CCCOC(=O)c1ccccc1OC(C)=O | > 100 µM (inactive) | > 100 µM (inactive) | > 100 µM (inactive) | > 100 µM (inactive) | > 100 µM (inactive) | > 100 µM (inactive) | > 100 µM (inactive) | > 100 µM (inactive) | > 100 µM (inactive) | > 100 µM (inactive) | > 100 µM (inactive) | > 100 µM (inactive) | > 100 µM (inactive) | > 100 µM (inactive) | > 100 µM (inactive) | > 100 µM (inactive) | > 100 µM (inactive) | > 100 µM (inactive) | > 100 µM (inactive) | > 100 µM (inactive)
10 | O=C(/C=C/c1ccc(O)cc1)c1cc(-c2cc(CCC(=O)c3ccc(O)cc3O)ccc2O)c(O)cc1O | 24.8 µM (inactive) | 36.1 µM (inactive) | 19.8 µM (inactive) | 23.7 µM (inactive) | 16.2 µM (inactive) | 41.6 µM (inactive) | 28.1 µM (inactive) | 17 µM (inactive) | 23.8 µM (inactive) | 22.6 µM (inactive) | 22.4 µM (inactive) | 16.9 µM (inactive) | 32.2 µM (inactive) | 26.8 µM (inactive) | 19.3 µM (inactive) | 10.4 µM (inactive) | 29.9 µM (inactive) | 30.6 µM (inactive) | 17.5 µM (inactive) | > 50 µM (inactive)
